Common to all, as to conditions: at 1 µM
For assay [1], the target named is T1, Inhibitor of nuclear factor kappa-B kinase subunit epsilon (Homo sapiens) (UniProt Q14164).
T1 sequence (whole entry): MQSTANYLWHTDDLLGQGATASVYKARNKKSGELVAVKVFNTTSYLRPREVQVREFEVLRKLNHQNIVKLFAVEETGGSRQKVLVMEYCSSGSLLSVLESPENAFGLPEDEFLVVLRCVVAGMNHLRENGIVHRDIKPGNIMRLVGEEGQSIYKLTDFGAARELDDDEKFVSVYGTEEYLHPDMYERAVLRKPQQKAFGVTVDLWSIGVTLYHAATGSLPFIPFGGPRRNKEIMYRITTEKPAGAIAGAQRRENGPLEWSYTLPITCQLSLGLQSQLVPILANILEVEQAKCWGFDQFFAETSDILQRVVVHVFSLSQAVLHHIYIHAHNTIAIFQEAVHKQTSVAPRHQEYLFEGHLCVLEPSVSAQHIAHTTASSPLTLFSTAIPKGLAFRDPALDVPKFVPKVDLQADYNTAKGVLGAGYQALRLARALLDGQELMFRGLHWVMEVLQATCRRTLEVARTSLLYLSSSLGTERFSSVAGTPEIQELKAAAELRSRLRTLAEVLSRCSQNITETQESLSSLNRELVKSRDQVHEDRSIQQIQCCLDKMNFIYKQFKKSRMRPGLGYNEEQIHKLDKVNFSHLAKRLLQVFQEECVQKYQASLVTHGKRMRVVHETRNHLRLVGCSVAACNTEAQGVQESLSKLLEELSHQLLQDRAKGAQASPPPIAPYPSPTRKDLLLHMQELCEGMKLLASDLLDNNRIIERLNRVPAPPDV

The target of assay [2] is T2, Inhibitor of nuclear factor kappa-B kinase subunit alpha (Homo sapiens) (UniProt O15111).
T2 sequence (whole entry): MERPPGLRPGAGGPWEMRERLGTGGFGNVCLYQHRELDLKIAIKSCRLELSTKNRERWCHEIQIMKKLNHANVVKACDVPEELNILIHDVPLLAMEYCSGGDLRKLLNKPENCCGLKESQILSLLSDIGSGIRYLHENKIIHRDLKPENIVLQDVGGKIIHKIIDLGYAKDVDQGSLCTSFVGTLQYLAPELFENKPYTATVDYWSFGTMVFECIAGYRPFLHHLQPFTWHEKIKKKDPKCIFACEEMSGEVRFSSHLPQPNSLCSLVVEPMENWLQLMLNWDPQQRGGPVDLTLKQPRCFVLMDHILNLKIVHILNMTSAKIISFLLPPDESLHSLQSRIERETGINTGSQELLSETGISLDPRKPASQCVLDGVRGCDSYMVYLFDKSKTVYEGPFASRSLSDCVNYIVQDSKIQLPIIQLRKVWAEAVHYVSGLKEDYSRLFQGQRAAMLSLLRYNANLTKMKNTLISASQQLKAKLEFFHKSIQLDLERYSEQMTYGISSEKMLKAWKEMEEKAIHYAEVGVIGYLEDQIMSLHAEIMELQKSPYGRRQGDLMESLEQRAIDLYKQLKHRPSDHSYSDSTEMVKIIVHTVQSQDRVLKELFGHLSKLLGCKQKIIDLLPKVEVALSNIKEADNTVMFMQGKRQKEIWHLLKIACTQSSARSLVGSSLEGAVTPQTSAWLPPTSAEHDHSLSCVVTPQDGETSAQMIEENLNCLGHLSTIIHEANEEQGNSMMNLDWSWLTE

Assay [3] addresses T3, Serine/threonine-protein kinase TBK1 (Homo sapiens) (UniProt Q9UHD2).
T3 sequence (whole entry): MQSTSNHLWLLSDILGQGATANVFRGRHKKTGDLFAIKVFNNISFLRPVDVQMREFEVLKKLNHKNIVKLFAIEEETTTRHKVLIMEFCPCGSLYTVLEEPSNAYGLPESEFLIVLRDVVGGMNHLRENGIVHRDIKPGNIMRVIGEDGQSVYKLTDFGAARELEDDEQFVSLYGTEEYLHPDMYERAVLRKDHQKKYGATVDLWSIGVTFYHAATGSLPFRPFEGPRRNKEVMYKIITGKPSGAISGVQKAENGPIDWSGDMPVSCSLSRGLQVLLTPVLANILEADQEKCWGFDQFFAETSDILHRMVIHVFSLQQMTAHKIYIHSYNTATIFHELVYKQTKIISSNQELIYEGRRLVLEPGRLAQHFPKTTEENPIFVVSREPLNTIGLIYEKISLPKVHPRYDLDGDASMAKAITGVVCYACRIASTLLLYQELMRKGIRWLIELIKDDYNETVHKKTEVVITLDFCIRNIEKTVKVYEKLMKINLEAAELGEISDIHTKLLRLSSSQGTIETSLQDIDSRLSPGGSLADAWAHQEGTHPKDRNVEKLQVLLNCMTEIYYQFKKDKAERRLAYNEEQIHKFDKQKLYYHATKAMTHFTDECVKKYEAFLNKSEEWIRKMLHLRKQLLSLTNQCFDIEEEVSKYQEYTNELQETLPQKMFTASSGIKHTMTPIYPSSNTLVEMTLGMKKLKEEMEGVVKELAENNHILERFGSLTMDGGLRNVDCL

In ChEMBL document CHEMBL2007661, “Compounds: GSK PKIS; Assays: UNC Frye lab” (2012) one finds inhibition data, which are given here for 34 compounds.

By inhibition is commonly meant the change of the read-out against control, counted positive when it falls.

Values joined by “and” are separate entries in the source; they are usually repeats but may differ in a detail not shown here. Equal values may be shown once.

As to `NC(=O)c1sc(-n2cnc3cc(C(F)(F)F)ccc32)cc1OCc1ccccc1Br`, the inhibition in assay [1] is 3% and 2%; in assay [2], 1% and 3%; in assay [3], 3% and 6%.
With `CN(C)C(=O)O[C@@H]1CN[C@@H](C#Cc2cc3ncnc(Nc4ccc(OCc5cccc(F)c5)c(Cl)c4)c3s2)C1`, the inhibition in assay [1] is -1%; in assay [2] it was 2% and 1%; in assay [3] it was 12% and 7%.
Consider `Cc1c2ccc(N(C)c3ccnc(Nc4cccc(S(N)(=O)=O)c4)n3)cc2nn1C`, for which the inhibition in assay [1] is -1% and 2%; in assay [2], 2%; in assay [3], 1% and 2%.
Take `Nc1nccc(C#Cc2cncnc2Nc2ccc(OCc3cccc(F)c3)c(Cl)c2)n1`: the inhibition in assay [1] was 2% and 4%; in assay [2], 2% and 0%; in assay [3] it was 18% and 9%.
Turning to `Nc1ncnc2occ(-c3ccc(NC(=O)Nc4cc(C(F)(F)F)cc(C(F)(F)F)c4)cc3)c12`, the inhibition in assay [1] was 7% and 8%; in assay [2], 4% and 1%; in assay [3] it was -3% and -6%.
Regarding `CN(C)CCCn1c(-c2nonc2N)nc2cnccc21`, the inhibition in assay [1] was 2%; in assay [2], 8% and 10%; in assay [3], 1% and 0%.
For `CN1CCC(C(=O)Nc2n[nH]c3nc(-c4ccc(O)cc4)c(Br)cc23)CC1`, the inhibition was 2% (2×) and 1% in assay [1]; 1% and 3% and 4% in assay [2]; 3% [middle of 4 runs] in assay [3].
Take `Fc1ccc(-c2ncn(CCCN3CCOCC3)c2-c2ccncc2)cc1`: the inhibition is 0% in assay [1]; 0% and 1% in assay [2]; -1% in assay [3].
In the case of `COc1ccc2cc(-c3c(-c4ccncc4)nc(-c4ccc([S+](C)[O-])cc4)n3C)ccc2c1` (configuration not stated), the inhibition is -1% and 2% in assay [1]; 4% and 3% in assay [2]; -3% and 0% in assay [3].
Take `COc1cc2ncn(-c3cc(OCc4ccccc4S(C)(=O)=O)c(C#N)s3)c2cc1OC`: the inhibition was 90% and 88% in assay [1]; 1% and 2% in assay [2]; 103% and 101% in assay [3].
For the compound `CCn1c(-c2nonc2N)nc2c(C#CC(C)(C)O)ncc(OCC3CCNCC3)c21`, the inhibition was 96% in assay [1]; 9% and 3% in assay [2]; 55% and 59% in assay [3].
On to `c1ccc(Oc2ccc(Nc3ncc(-c4ccccc4)o3)cc2)cc1`, for which the inhibition in assay [1] is -2% and -1%; in assay [2] it was 1% and 2%; in assay [3] it was -5% and -4%.
Turning to `CC(=O)Nc1cccc(C#Cc2cncnc2Nc2ccc(OCc3cccc(F)c3)c(Cl)c2)n1`, the inhibition was -1% in assay [1]; 2% in assay [2]; 3% and 0% in assay [3].
On to `NC(=O)c1ccc(Oc2nccc(-c3c(-c4ccc(F)cc4)ncn3C3CCNCC3)n2)cc1`, for which the inhibition is 3% in assay [1]; -5% and -4% in assay [2]; 5% and 4% in assay [3].
Take `Fc1ccc(Nc2nccc(-c3c(-c4ccc(C(F)(F)F)cc4)nn4ncccc34)n2)cc1F`: the inhibition in assay [1] was -3% and -2%; in assay [2] it was 19% and 13%; in assay [3], -5%.
In the case of `CCS(=O)(=O)c1ccc(OC)c(Nc2nccc(N(C)c3ccc4c(C)n[nH]c4c3)n2)c1`, the inhibition in assay [1] is 8% and 7%; in assay [2], -7% and 2%; in assay [3], 1%.
Regarding `CCCN1CCC=C(c2ccc(Nc3nc(Nc4ccccc4C(N)=O)c4cc[nH]c4n3)c(C)c2)C1`, the inhibition in assay [1] was 13% and 12%; in assay [2] it was 4% and 2%; in assay [3] it was 28% and 24%.
With `Fc1ccc(-c2ncn(C3CCNCC3)c2-c2ccnc(Oc3ccccc3)n2)cc1`, the inhibition was -1% and -2% in assay [1]; 3% and 2% in assay [2]; 0% and 3% in assay [3].
As to `CCn1c(-c2nonc2N)nc2cncc(C(=O)N3CC[C@H](N)C3)c21`, the inhibition in assay [1] was 54% and 53%; in assay [2], 35% and 28%; in assay [3], 32% and 36%.
Take `Cc1cc(-c2ccco2)cc(C)c1/C=C/c1cncc(-c2nn[nH]n2)c1`: the inhibition in assay [1] was 9% and 11%; in assay [2] it was -4% and -2%; in assay [3] it was 5% and 3%.
On to `CS(=O)(=O)Nc1ccc(N/C=C2\C(=O)Nc3ccccc32)cc1`, for which the inhibition in assay [1] was 25% and 24%; in assay [2] it was 4% and 0%; in assay [3], 29% and 20%.
Turning to `CCC(=O)Nc1ccc(C)c(-c2ccc(C(=O)NCC3CC3)cc2)c1`, the inhibition in assay [1] was -2% and 0%; in assay [2], -2%; in assay [3], 1% and -2%.
With `Nc1nc(-c2ccc(F)cc2)c(-c2ccc3ncccc3n2)s1`, the inhibition is 0% and 1% in assay [1]; 0% and 1% in assay [2]; 4% and 1% in assay [3].
Regarding `COc1cc(N2CCN(C(C)C)CC2)ccc1Nc1nc(Nc2ccc(F)cc2C(=O)NC[C@@H](O)CO)c2cc[nH]c2n1`, the inhibition in assay [1] was 0% and 1%; in assay [2] it was 2% and 3%; in assay [3], -1% and -3%.
Turning to `Cc1cccc(Nc2ncc(-c3ccccc3)o2)c1`, the inhibition in assay [1] is 0% and 1%; in assay [2], -1% and -2%; in assay [3], 1% and 4%.
For the compound `CC1=C(C(=O)Nc2ccc3[nH]ncc3c2)C(c2ccc3ccccc3c2)CC(=O)N1` (configuration not stated), the inhibition is 0% and -3% in assay [1]; 0% and 11% in assay [2]; -2% and -5% in assay [3].
Turning to `CCn1c(-c2nonc2N)nc2c(C#CC(C)(C)O)ncc(OC[C@@H]3CCCN3)c21`, the inhibition in assay [1] is 97%; in assay [2] it was 18% and 19%; in assay [3] it was 65% and 66%.
Take `CCn1c(-c2nonc2N)nc2c(C#CC(C)(C)O)ncc(OC3CCNCC3)c21`: the inhibition in assay [1] is 95% and 96%; in assay [2], 9% and 5%; in assay [3], 55% and 57%.
For `Cc1nnc(-c2cccc(-c3ccc(C(=O)NCC4CC4)cc3)c2)o1`, the inhibition in assay [1] was -1%; in assay [2], 3% and 4%; in assay [3], -1% and -2%.
For `CC(C)=Cc1cccc2c1/C(=N/Nc1ccc(S(N)(=O)=O)cc1)C(=O)N2`, the inhibition was 33% in assay [1]; -2% and 1% in assay [2]; 46% and 45% in assay [3].
As for `CN(c1ccc(NC(=O)Nc2c(Cl)cccc2Cl)cc1)c1ccnc(Nc2cccc(CS(C)(=O)=O)c2)n1`, the inhibition in assay [1] was 13%; in assay [2] it was 0% and 6%; in assay [3], 19% and 17%.
Take `Cc1ccc(O)cc1Nc1ccnc2ccc(S(C)(=O)=O)cc12`: the inhibition in assay [1] was 0% and 2%; in assay [2], 5%; in assay [3], 1% and -2%.
With `COc1ccc(-c2oc3ncnc(N)c3c2-c2ccc(NC(=O)Nc3cc(C(F)(F)F)ccc3F)cc2)cc1`, the inhibition in assay [1] was 9% and 10%; in assay [2] it was 2% and 1%; in assay [3], -3% and -1%.
In the case of `NS(=O)(=O)c1ccc(N/N=C2\C(=O)Nc3ccc4ncccc4c32)cc1`, the inhibition in assay [1] was 55%; in assay [2], 4% and -7%; in assay [3] it was 76% and 77%.
